Structures can show the parent of a compound that is named as a salt.
Columns and labels:
[1] = tested on: 60 Human Cancer Cell Lines (NCI-60); conditions: data obtained from the NCI/DTP database (asterisk); cited from earlier work

Row | Structure (SMILES) | melting point | pIC50 [1]
1 | O=c1[nH]/c(=C\c2ccc(OCc3cccnc3)cn2)c(=O)[nH]/c1=C\c1ccccc1 (as salt: sulfonic acid salt) [Compound 3, 3-benzylidene-6-((5-(pyridin-3-ylmethoxy)pyridin-2-yl)methylene)piperazine-2,5-dione methanesulfonic acid salt] | 228 to 230 °C | 
2 | O=c1[nH]/c(=C\c2ccc(OCc3ccccn3)cn2)c(=O)[nH]/c1=C\c1ccccc1 (as salt: sulfonic acid salt) [Compound 4, 3-benzylidene-6-((5-(pyridin-2-ylmethoxy)pyridin-2-yl)methylene)piperazine-2,5-dione methanesulfonic acid salt] | 266 to 267 °C | 
3 | NC(C(=O)Oc1ccc(/C=c2\[nH]c(=O)/c(=C/c3ccccc3)[nH]c2=O)nc1)c1ccccc1 (stereo not shown) (as salt: trifluoroacetate) [Compound 9, 2-(6-((Z)—((Z)-5-benzylidene-3,6-dioxopiperazin-2-ylidene)methyl)py-ridin-3-yloxy)-2-oxo-1-phenylethanaminium 2,2,2-trifluoroacetate] | 280 °C | 
4 | NC(Cc1ccccc1)C(=O)Oc1ccc(/C=c2\[nH]c(=O)/c(=C/c3ccccc3)[nH]c2=O)nc1 (stereo not shown) (as salt: trifluoroacetate) [Compound 11, 1-(6-((Z)—((Z)-5-benzylidene-3,6-dioxopiperazin-2-ylidene)methyl)-pyridin-3-yloxy)-1-oxo-3-phenylpropan-2-aminium 2,2,2-trifluoroacetate] | 285 to 286 °C | 
5 | NC(Cc1ccc(O)cc1)C(=O)Oc1ccc(/C=c2\[nH]c(=O)/c(=C/c3ccccc3)[nH]c2=O)nc1 (stereo not shown) (as salt: trifluoroacetate) [Compound 12, 1-(6-((Z)—((Z)-5-benzylidene-3,6-dioxopiperazin-2-ylidene)methyl)pyridin-3-yloxy)-3-(4-hydroxyphenyl)-1-oxopropan-2-aminium 2,2,2-trifluoroacetate] | 312 to 314 °C | 
6 | Nc1nc2[nH]cc(CCc3ccc(C(=O)N[C@@H](CCC(=O)O)C(=O)O)cc3)c2c(=O)[nH]1 [Alimta] |  | 4.97
7 | O=c1[nH]cc(F)c(=O)[nH]1 [Compound 5-FU, 5-FU] |  | 4.76
8 | CN1CCN(C(=O)Oc2ccc(/C=c3\[nH]c(=O)/c(=C/c4ccccc4)[nH]c3=O)nc2)CC1 [Compound 6, 6-((Z)—((Z)-5-benzylidene-3,6-dioxopiperazin-2-ylidene)methyl)pyridin-3-yl-4-methylpiperazine-1-carboxylate] | 234 to 235 °C | 
9 | CC(C)(C)OC(=O)NC(Cc1ccccc1)C(=O)Oc1ccc(/C=c2\[nH]c(=O)/c(=C/c3ccccc3)[nH]c2=O)nc1 (stereo not shown) [Compound 10, 6-((Z)—((Z)-5-benzylidene-3,6-dioxopiperazin-2-ylidene)methyl)pyridin-3-yl 2-(tert-butoxycarbonylamino)-3-phenylpropanoate] | 188 °C | 
10 | CC(C)(C)OC(=O)NC(Cc1ccc(OC(C)(C)C)cc1)C(=O)Oc1ccc(/C=c2\[nH]c(=O)/c(=C/c3ccccc3)[nH]c2=O)nc1 (stereo not shown) [Compound 13, 6-((Z)—((Z)-5-benzylidene-3,6-dioxopiperazin-2-ylidene)methyl)pyridin-3-yl-2-(tert-butoxycarbonylamino)-3-(4-tert-butoxyphenyl)propanoate] | 210 to 212 °C | 
11 | O=c1[nH]/c(=C\c2ccc(OCc3ccncc3)cn2)c(=O)n(Cc2ccncc2)/c1=C\c1ccccc1 [Compound 14, (3Z,6Z)-6-benzylidene-3-((5-(pyridin-4-ylmethoxy)pyridin-2-yl)meth-ylene)-1-(pyridin-4-ylmethyl)piperazine-2,5-dione] | 284 °C (dec.) | 
12 | CN(C)CCCOc1cccc(/C=c2\[nH]c(=O)/c(=C/c3ccc(OCc4ccccc4)cn3)[nH]c2=O)c1 [Compound 17, 3-((5-(benzyloxy)pyridin-2-yl)methylene)-6-(3-(3-(dimethylamino)propoxy)benzylidene)piperazine-2,5-dione] | 286 °C (dec.) | 
13 | O=c1[nH]/c(=C\c2ccc(OCCO)cn2)c(=O)n(CCO)/c1=C\c1ccccc1 [Compound 18, 6-benzylidene-3-((5-(2-hydroxyethoxy)pyridin-2-yl)methylene)-1-(2-hydroxyethyl)piperazine-2,5-dione] | 326 °C (dec.) | 
14 | CC(=O)N1CC(=O)N/C(=C\c2ccc3ccccc3n2)C1=O [Compound 19, 1-acetyl-3-(quinolin-2-ylmethylene)piperazine-2,5-dione] | 262 to 263 °C | 
15 | O=c1[nH]/c(=C\c2ccc3ccccc3n2)c(=O)[nH]/c1=C\c1ccc2ccccc2n1 [Compound 20, 3,6-bis(quinolin-2-ylmethylene)piperazine-2,5-dione] | 374 to 375 °C | 
16 | O=c1[nH]/c(=C\c2ccc3ccccc3n2)c(=O)[nH]/c1=C\c1cccnc1 [Compound 21, 3-(pyridin-3-ylmethylene)-6-(quinolin-2-ylmethylene)piperazine-2,5-dione] | 305 to 306 °C | 

Row | Structure (SMILES) | melting point | pIC50 [1]
17 | O=c1[nH]/c(=C\c2ccc3ccccc3n2)c(=O)[nH]/c1=C\c1ccc(F)cc1 [Compound 22, 3-(4-fluorobenzylidene)-6-(quinolin-2-ylmethylene)piperazine-2,5-dione] | 319 to 320 °C | 
18 | O=c1[nH]/c(=C\c2ccc3ccccc3n2)c(=O)[nH]/c1=C\c1ccc(Cl)cc1 [Compound 23, 3-(4-chlorobenzylidene)-6-(quinolin-2-ylmethylene)piperazine-2,5-dione] | 348 to 349 °C | 
19 | O=c1[nH]/c(=C\c2cccs2)c(=O)[nH]/c1=C\c1ccc2ccccc2n1 [Compound 24, 3-(quinolin-2-ylmethylene)-6-(thiophen-2-ylmethylene)piperazine-2,5-dione] | 288 to 289 °C | 
20 | O=c1[nH]/c(=C\c2ccnc3ccccc23)c(=O)[nH]/c1=C\c1ccnc2ccccc12 [Compound 26, 3,6-bis(quinolin-4-ylmethylene)piperazine-2,5-dione] | 374 to 375 °C | 
21 | CC(=O)N1CC(=O)N/C(=C\c2cnc3ccccc3c2)C1=O [Compound 27, 1-acetyl-3-(quinolin-3-ylmethylene)piperazine-2,5-dione] | 261 to 262 °C | 
22 | Nc1ccn([C@@H]2O[C@H](CO)[C@@H](O)C2(F)F)c(=O)n1 [Gemcitabine] |  | 6.82
23 | COc1cc2ncnc(Nc3ccc(F)c(Cl)c3)c2cc1OCCCN1CCOCC1 [Irressa] |  | 5.49
24 | CN(Cc1cnc2nc(N)nc(N)c2n1)c1ccc(C(=O)N[C@@H](CCC(=O)O)C(=O)O)cc1 [MTX] |  | 6.95
25 | CNC(=O)c1cc(Oc2ccc(NC(=O)Nc3ccc(Cl)c(C(F)(F)F)c3)cc2)ccn1 [Mexavar] |  | 5.73
26 | CCN(CC)CCNC(=O)c1c(C)[nH]c(/C=C2\C(=O)Nc3ccc(F)cc32)c1C [Sutent] |  | 5.71
27 | C#Cc1cccc(Nc2ncnc3cc(OCCOC)c(OCCOC)cc23)c1 [Tarceva] |  | 5.26
28 | CC(=O)O[C@@]12CO[C@@H]1C[C@H](O)[C@@]1(C)C(=O)[C@H](O)C3=C(C)[C@@H](OC(=O)[C@H](O)[C@@H](NC(=O)OC(C)(C)C)c4ccccc4)C[C@@](O)([C@@H](OC(=O)c4ccccc4)[C@H]21)C3(C)C [docetxel] |  | 7.66
29 | O=C1[O][Pt]2([NH][C@@H]3CCCC[C@H]3[NH]2)[O]C1=O [eloxatin] |  | 5.65
30 | CCc1c2c(nc3ccc(OC(=O)N4CCC(N5CCCCC5)CC4)cc13)-c1cc3c(c(=O)n1C2)COC(=O)[C@]3(O)CC [irinotecan] |  | 4.85
31 | CC(=O)O[C@H]1C(=O)[C@@]2(C)[C@H]([C@H](OC(=O)c3ccccc3)[C@]3(O)C[C@H](OC(=O)[C@H](O)[C@@H](NC(=O)c4ccccc4)c4ccccc4)C(C)=C1C3(C)C)[C@]1(OC(C)=O)CO[C@@H]1C[C@@H]2O [taxol] |  | 7.84

Source: US8710062B2, “Piperazinedione compounds” (Taipei Medical University, priority 2011, dated 2014)
